Reference: US11413269B2, “Compositions for improved NRF2 activation and methods of their use” (PATHWAYS BIOSCIENCE, LLC, priority 2015, dated 2022)

Test system: Nrf2
Assay: ARE-driven luciferase promoter/reporter assay in stably transfected cell lines
Format: cell-based, human
Details: low concentrations
Procedure: Briefly, the stably transfected cells of types HepG2 (human liver), AREc32 (human breast), MCF7 (human breast), A549 (human lung), 293T (human kidney), and A172 (human brain) were seeded at low density in 24-well plates and incubated at 37° C. with 10% CO2. […] After an additional 18 h of incubation, the cells were lysed in their wells with 100 μl of a lysing buffer that contains 3.5 mM sodium pyrophosphate to stabilize light output by luciferase. A 20 μl aliquot of cell lysate was added to a small test tube, placed in a BD Monolight 3010 luminometer for background luminescence, and then 50 μl of 1 mM luciferin was injected into the tube. Relative Light Units integrated for 10 sec were measured for each sample.

O=c1cc(-c2ccc(O)c(O)c2)oc2cc(O)cc(O)c12 [Luteolin, luteolin]
synergy with combinations of Rosemary extracts and Ginger extracts to activate Nrf2: synergized
